Measured values taken from patent US20220354852A1, “TARGETING WNT SIGNALING FOR IMPROVED GLIOMA IMMUNOTHERAPY” (CITY OF HOPE, priority 2021, published 2022).

How the values were obtained:
[1] = tested on: normal somatic stem cell population; conditions: preclinical studies; cited from earlier work
[2] = Tran and Zheng 2017; cited from earlier work
[3] = tested on: Survivin/BIRC5 (Wnt/CBP/β-catenin signaling); assay: Survivin-luciferase reporter assay; assay type: cell-based, human; conditions: PBT017 and PBT030 cell lines
Method: FIG. 15. Expression of target genes post-ICG-001 treatment (0-10 μM) by RT-PCR using (A-C) mouse Survivin in GL261-IL13, GL261, and K-luc cells. (D) Survivin in PBT147 human glioma cells. (E, F) Luciferase reporter assay indicating downregulation of Survivin/BIRC5 in PBT017 and PBT030 cell lines.
FIG. 16 is a table showing the expression of the target genes survivin/BIRC5 post-ICG-001 treatment ([…]) as detected by RT-PCR and Luciferase Reporter Assay.
ICG-001 differentially affects the expression of the Wnt target genes BIRC5/Survivin and EphB2 in vitro. […] The effects of ICG-001 on Wnt/CBP/β-catenin signaling were further confirmed using a Survivin-luciferase reporter assay (FIG. 15). ICG-001's selective effects on the expression of Survivin and EphB2 may serve as indicators of ICG-001 on target tissue activity in vivo (FIG. 16) and a readout for pharmacokinetics/pharmacodynamics (PK/PD) as used previously in clinical trials with the second-generation CBP/β-catenin specific antagonist PRI-724 (Anthony et al. 2013).

[4] = tested on: PBT147 and PBT030 glioma cell lines; assay: Global proteomic analysis of PBT147 and PBT030; assay type: cell-based, human; conditions: 72 h
Method: FIG. 18. Proteomics analysis of PBT147 and PBT030 cell lines treated with ICG-001 (0-10 μM) for 72 h. (A) Protein density was calculated by the difference in log normalized levels for each protein between the four treated samples and the appropriate untreated sample. (B) Calculating the difference in log levels corresponds also to looking at the log of the fold changes in each protein. For both cell lines, the log fold-change for each protein at […] was plotted against the log fold-change at 10 μg. These plots are shown in A, with the points color-coded by cell line. This highlights a positive linear relationship between the log fold changes at 5 μg and 10 μg in both cell lines. […] The heatmap has been generated using Ward's method for clustering and the Manhattan (L1) distance. To highlight patterns of similar changes in regulation over cell lines and doses, rather than absolute differences in protein levels, quantile normalization has been used before creating the heatmap, with protein levels in each sample being normalized to that of a uniform distribution on −1≤x≤1.
FIG. 19 is a table showing a proteomics analysis at 72 hours for two cell lines (PB147, PB030) treated with ICG-001 in vitro at three doses (0 μg, 5 μg, 10 μg). 1557 proteins were quantified.
Proteomics data analysis. […] To examine the effect of the drug, the difference in log normalized levels for each protein between the four treated samples and the appropriate untreated sample was calculated, which corresponds to examining the log of the fold changes in each protein after treatment. For each of the two cell lines, the log fold change for each protein at 5 μg was plotted against the log fold change at 10 μg. These plots are shown in FIG. 17, with the points colored-coded by cell line. The line of (linear) regression is calculated and shown for each cell line.
The heatmap has been constructed by using Ward's method for clustering and the Manhattan (L1) distance. To highlight patterns of similar changes in regulation over cell-lines and doses, rather than absolute differences in protein levels, quantile normalization has been used before creating the heatmap, with protein levels in each sample being normalized those of a uniform distribution on −1≤x≤1.
Proteomics analyses of the PBT147 and PBT030 glioma cell lines after treatment with ICG-001 to elucidate targeted pathways in vitro. […]
To examine the effect of ICG-001, the difference in log-normalized levels was calculated for each protein between the four treated samples and the appropriate untreated samples (which corresponds to looking at the log of the fold changes in each protein). […] The line of (linear) regression is calculated and plotted for each cell line. […]

KIF20A = assay: qRT-PCR of KIF20A in PBT147 and PBT030 cells; assay type: cell-based, human
Method: ICG-001 activity in vitro in human and mouse glioma cell lines. Initially, the effects of the specific CBP/β-catenin antagonist ICG-001 was tested in vitro as a single agent on human and mouse glioma cell lines (5 PBT human and 3 mouse glioma lines).

O=C1[C@H](Cc2ccc(O)cc2)N2C(=O)CCN(C(=O)NCc3ccccc3)[C@H]2CN1Cc1cccc2ccccc12 [ICG-001]
therapy-induced toxicity [1]: ameliorated therapy-induced toxicity | blood-brain barrier crossing [2]: cross the blood-brain barrier | Survivin/BIRC5 luciferase reporter activity [3]: downregulation | dose effect on protein fold change, PBT030 versus PBT147 ([4]; 5 μM versus 10 μM): significantly greater in PBT030 than PBT147 | HA and LDHA protein expression ([4]; ICG-001 0, 5, and 10 μM): loss | PKM1 protein expression ([4]; ICG-001 0, 5, and 10 μM): increased | protein translation ([4]; ICG-001 0, 5, and 10 μM): overall increase in protein translation | KIF20A expression (KIF20A): decreased expression of KIF20A
